# US11547761B1, “Antibody adjuvant conjugates” (The Board of Trustees of the Leland Stanford Junior …, priority 2016, dated 2023)
# Assays:
# [1] = test system: murine monocyte derived APCs; experiment: Cytokine secretion in murine monocyte derived APCs (GM-CSF-pretreated monocytes); assay type: cell-based; conditions: 18 hours
# Experimental: Specifically, cytokine production is shown in FIG. 21 for GM-CSF-pretreated monocytes that were stimulated for 18 hours with the immunoconjugates or equivalent amounts of the unconjugated components.
# [2] = test system: human antigen presenting cells; experiment: Stimulation of human antigen presenting cells with free adjuvants, flow cytometry; assay type: cell-based; conditions: peripheral blood APCs, 10-fold serial dilutions, 18 hours, 37° C.
# Experimental: Peripheral blood antigen presenting cells (APCs) were stimulated with 10-fold serial dilutions of R848, Compound 2 or a control TLR agonist at 37° C. After 18 hours, cells were analyzed via flow cytometry. Data are presented as median fluorescence intensity of each indicated marker; n=3.
# To determine if adjuvant functionalization impacted the capacity of Compound 2 or Compound 1 to elicit immune activation, human antigen presenting cells were stimulated with 10-fold serial dilutions of R848, Compound 2, Compound 1 or a control TLR agonist, CL307, for 18 hours prior to analysis via flow cytometry.
# human TLR8 = target: T1, human TLR8 (Homo sapiens, UniProt Q9NR97); experiment: HEK293 TLR reporter (secreted embryonic alkaline phosphatase) assay; assay type: cell-based; conditions: 2-fold serial dilutions, 12 hours at 37° C.
# T1 construct: expressed in transfected cells; host or cells: HEK293
# T1 sequence (Q9NR97 27-1041): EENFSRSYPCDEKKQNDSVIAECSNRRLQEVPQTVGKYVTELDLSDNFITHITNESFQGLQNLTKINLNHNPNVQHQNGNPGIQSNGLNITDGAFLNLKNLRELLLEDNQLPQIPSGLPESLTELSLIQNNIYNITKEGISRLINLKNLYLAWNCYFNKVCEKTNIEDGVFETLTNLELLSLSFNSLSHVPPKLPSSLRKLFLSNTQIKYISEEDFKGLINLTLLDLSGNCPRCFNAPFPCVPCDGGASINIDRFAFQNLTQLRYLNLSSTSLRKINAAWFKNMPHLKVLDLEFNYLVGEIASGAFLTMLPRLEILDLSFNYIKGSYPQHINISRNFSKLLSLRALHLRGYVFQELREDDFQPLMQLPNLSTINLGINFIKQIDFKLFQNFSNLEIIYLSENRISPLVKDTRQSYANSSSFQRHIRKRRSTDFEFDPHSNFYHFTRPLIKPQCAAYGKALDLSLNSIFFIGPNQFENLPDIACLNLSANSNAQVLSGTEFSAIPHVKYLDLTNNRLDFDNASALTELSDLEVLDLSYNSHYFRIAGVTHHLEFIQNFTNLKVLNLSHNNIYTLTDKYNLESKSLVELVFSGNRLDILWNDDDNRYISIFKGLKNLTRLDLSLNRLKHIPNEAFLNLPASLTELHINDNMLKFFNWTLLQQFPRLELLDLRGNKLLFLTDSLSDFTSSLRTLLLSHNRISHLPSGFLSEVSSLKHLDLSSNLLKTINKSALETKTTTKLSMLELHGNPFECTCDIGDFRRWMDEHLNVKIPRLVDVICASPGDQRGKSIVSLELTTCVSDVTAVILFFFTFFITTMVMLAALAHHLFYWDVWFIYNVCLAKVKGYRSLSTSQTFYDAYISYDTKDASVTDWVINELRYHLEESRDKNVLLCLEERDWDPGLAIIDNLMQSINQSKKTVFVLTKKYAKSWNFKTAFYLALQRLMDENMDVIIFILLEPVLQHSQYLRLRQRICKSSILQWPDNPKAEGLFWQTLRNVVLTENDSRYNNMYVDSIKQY
# Experimental: (§1) HEK293 cells were co-transfected with human TLR7 or TLR8 (top two panels) or murine TLR7 (bottom panel) and an inducible secreted embryonic alkaline phosphatase reporter gene under the control of the IFN-β minimal promoter fused to NF-κB and AP-1 binding sites. Cells were subsequently incubated with 2-fold serial dilutions of the indicated adjuvant for 12 hours at 37° C. Activity was measured by spectrophotometry (OD 650 nm) following addition of alkaline phosphatase substrate.
# (§2) Next, the capacity of each functionalized TLR agonist to activate human TLR7 or TLR8 was directly assayed. HEK293 cells were co-transfected with human TLR7 or TLR8 or murine TLR7 and an inducible secreted embryonic alkaline phosphatase reporter gene under the control of the IFN-β minimal promoter fused to NF-κB and AP-1 binding sites. Cells were subsequently incubated with 2-fold serial dilutions of each the indicated adjuvants for 12 hours at 37 C in the presence of an alkaline phosphatase substrate. Activity was measured by spectrophotometry (OD 650 nm).
# murine TLR7 = target: T2, murine TLR7 (Mus musculus, UniProt P58681); experiment: as above; assay type: cell-based; conditions: 2-fold serial dilutions, 12 hours at 37° C.
# T2 construct: expressed in transfected cells; host or cells: HEK293
# T2 sequence (P58681 27-1050): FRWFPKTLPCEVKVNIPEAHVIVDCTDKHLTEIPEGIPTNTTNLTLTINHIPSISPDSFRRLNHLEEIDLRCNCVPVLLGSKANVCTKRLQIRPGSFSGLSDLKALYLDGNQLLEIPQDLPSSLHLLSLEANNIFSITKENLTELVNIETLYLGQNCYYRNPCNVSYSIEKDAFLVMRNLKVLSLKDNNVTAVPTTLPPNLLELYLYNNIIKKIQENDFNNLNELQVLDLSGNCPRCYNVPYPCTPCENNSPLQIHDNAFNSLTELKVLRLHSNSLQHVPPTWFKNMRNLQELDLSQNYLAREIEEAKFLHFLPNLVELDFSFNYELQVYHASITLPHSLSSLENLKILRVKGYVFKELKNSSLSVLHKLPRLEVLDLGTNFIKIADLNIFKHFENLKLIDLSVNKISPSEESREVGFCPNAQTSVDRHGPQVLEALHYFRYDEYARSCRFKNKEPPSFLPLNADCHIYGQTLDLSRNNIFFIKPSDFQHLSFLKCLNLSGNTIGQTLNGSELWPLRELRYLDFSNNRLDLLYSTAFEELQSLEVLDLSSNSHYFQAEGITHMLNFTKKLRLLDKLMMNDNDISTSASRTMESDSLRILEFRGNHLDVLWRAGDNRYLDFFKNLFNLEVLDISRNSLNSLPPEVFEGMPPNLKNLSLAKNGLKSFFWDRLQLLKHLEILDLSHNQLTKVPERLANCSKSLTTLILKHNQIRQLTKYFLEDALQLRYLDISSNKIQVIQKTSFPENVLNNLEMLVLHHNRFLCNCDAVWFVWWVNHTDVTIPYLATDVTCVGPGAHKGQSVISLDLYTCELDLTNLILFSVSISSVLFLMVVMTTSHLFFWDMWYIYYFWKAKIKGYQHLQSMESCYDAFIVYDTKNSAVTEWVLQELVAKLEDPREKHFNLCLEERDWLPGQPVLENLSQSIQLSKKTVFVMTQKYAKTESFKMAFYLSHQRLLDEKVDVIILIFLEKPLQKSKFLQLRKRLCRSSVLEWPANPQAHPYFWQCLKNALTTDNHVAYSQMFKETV
# Experimental: as §1, §2
# human TLR7 = target: T3, human TLR7 (Homo sapiens, UniProt Q9NYK1); experiment: as above; assay type: cell-based; conditions: 2-fold serial dilutions, 12 hours at 37° C.
# T3 construct: expressed in transfected cells; host or cells: HEK293
# T3 sequence (Q9NYK1 27-1049): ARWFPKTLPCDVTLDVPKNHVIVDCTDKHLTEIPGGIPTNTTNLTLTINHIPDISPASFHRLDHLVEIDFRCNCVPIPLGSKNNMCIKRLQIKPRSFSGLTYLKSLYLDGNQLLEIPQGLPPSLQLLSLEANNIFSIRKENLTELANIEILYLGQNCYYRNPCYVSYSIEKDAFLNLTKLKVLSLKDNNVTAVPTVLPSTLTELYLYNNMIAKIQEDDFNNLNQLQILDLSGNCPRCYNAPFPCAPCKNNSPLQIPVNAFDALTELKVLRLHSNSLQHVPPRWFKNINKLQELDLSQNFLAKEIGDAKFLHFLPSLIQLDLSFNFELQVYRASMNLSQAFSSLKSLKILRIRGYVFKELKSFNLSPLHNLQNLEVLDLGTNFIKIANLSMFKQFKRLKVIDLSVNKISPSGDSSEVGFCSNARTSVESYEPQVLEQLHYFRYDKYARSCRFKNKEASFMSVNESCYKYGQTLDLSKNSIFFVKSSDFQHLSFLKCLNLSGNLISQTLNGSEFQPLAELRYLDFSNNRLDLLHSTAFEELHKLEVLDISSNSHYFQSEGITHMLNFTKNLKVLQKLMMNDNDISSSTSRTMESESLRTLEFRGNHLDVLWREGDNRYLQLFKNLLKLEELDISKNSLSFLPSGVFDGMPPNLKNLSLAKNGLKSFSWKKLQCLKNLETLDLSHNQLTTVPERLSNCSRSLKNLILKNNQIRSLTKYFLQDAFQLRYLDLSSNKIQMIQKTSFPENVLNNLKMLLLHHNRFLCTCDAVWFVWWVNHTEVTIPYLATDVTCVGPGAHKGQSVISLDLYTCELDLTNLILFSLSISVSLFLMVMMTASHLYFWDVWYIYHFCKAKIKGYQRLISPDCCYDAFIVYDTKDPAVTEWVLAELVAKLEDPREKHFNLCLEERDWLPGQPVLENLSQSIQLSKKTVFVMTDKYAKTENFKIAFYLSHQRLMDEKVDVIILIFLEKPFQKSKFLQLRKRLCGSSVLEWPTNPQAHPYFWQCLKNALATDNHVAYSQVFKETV
# Experimental: as §1, §2
# [3] = test system: recombinant human CD16a protein; experiment: ELISA binding to CD16a; conditions: titration
# Experimental: Maxysorp ELISA plates were coated overnight with 1.5 ug/ml recombinant human CD16a protein (R&D Systems 4325-FC-050). Plates were blocked with PBS containing 1% BSA, and incubated with a titration of antibodies or antibody immunoconjugates. Bound antibodies were detected with Peroxidase conjugated AffiniPure F(ab′)2 Fragment Goat Anti-Human IgG (Jackson 109-036-003). TMB (Fisher PI34028) was added to the wells and absorbance at 450 nm was measured after stopping the reaction with TMB stop solution (Fisher NC1291012).
# [4] = target: T4, recombinant human CD64 protein (Homo sapiens, UniProt P12314); experiment: ELISA binding to CD64; conditions: titration
# T4 construct: purchased R&D Systems
# T4 sequence (P12314 16-374): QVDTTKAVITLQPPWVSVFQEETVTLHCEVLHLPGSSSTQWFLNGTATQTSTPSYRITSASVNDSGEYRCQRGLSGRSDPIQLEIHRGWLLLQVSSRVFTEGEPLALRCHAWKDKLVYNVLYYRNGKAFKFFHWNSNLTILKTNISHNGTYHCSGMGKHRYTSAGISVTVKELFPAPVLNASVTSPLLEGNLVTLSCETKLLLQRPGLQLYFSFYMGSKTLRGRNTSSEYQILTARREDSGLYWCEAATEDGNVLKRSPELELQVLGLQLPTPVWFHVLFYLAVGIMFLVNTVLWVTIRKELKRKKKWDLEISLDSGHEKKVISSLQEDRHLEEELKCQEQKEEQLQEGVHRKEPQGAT
# Experimental: Maxysorp ELISA plates were coated overnight with 1.5 ug/ml recombinant human CD64 protein (R&D Systems). Plates were blocked with PBS containing 1% BSA, and incubated with a titration of Rituximab or Rituximab immunoconjugates (Rituximab BB-01). Bound antibodies were detected with Peroxidase conjugated AffiniPure F(ab′)2 Fragment Goat Anti-Human IgG (Jackson) using TMB color development and absorbance at 450 nm was measured after stopping the reaction.
molecule,measurement,setting,value
CCCCc1nc2c(N)nc3ccccc3c2n1CCCCN [Compound 1],"cytokine response (TNFα, IL-6, IL-12p70)",[1],failed to produce any cytokine response
same,myeloid cell activation (median fluorescence intensity of activation markers),[2],performed similarly to R848
same,human TLR8 activation (OD 650 nm),human TLR8,activated both human TLR7 and TLR8
same,murine TLR7 activation (OD 650 nm),murine TLR7,activated murine TLR7
same,human TLR7 activation (OD 650 nm),human TLR7,activated both human TLR7 and TLR8
aglycosyl Rituximab: aglycosyl Rituximab (Invivogen hcd20-mab12),binding to CD16a (fraction of maximal OD signal),[3],diminished binding
deglycosylated Rituximab: Rituximab deglycosylated with PNGase F,binding to CD64,[4],impaired binding to CD64
